The source made the active and inactive calls. The calls are words filed in the database; no cut-off is given here.
What was measured:
A549 [1] = assay: Downregulation of TOP1 expression in human A549 cells after 24 hrs by Western blot analysis; format: functional, cell-based
[2] = Half life of compound in PBS buffer at pH 6.0 at 50 uM by HPLC analysis; format: physicochemical
HCT-116 [3] = assay: Antitumor activity against human HCT116 cells xenografted in mouse assessed as reduction in tumor volume at 50 mg/kg, iv for 5 consecutive days per week and measured every 3 to 4 days up to 14 days by microcaliper analysis relative to control; format: functional
[4] = AUC(0 to infinity) in BALB/c mouse at 50 mg/kg, iv after 5 to 24 hrs by LC-MS/MS analysis; format: ADME, organism-based; design: dose 50 mg/kg, route intravenous, time infinity; details: in vivo
[5] = Clearance in BALB/c mouse at 50 mg/kg, iv after 5 to 24 hrs by LC-MS/MS analysis; format: ADME, organism-based; details: in vivo
[6] = Drug uptake in human A549 cells assessed as blue shift in absorption spectrum at 5 uM by UV-visible absorption spectral analysis; format: ADME, cell-based; details: a549, 5 µM
HCT-116 [7] = assay: Induction of cell cycle arrest in human HCT116 cells assessed as accumulation at G2/M phase after 24 hrs by RNase A/PI-staining based flow cytometric analysis; format: functional
[8] = Drug uptake in human A549 cells assessed as eHSP90-mediated total cellular drug internalization at 5 uM after 12 hrs by LC-MS/MS analysis; format: ADME, cell-based; details: a549, 12 h
L02 = assay: Cytotoxicity agains human HL7702 cells assessed as reduction in cell viability after 72 hrs by SRB assay; format: cell-based; details: L02, 72 h
CAPAN-1 [9] = assay: Antiproliferative activity against human Capan1 cells assessed as reduction in cell viability after 72 hrs by SRB assay; format: functional, cell-based; details: CAPAN-1, 72 h
HCT-116 [10] = assay: Antiproliferative activity against human HCT116 cells assessed as reduction in cell viability after 72 hrs by SRB assay; format: functional, cell-based; details: HCT-116, 72 h
HCT-116 [11] = assay: Antitumor activity against human HCT116 cells xenografted in mouse assessed as tumor weight at 50 mg/kg, iv for 5 consecutive days per week and measured every 3 to 4 days up to 14 days (reference value: 1.73 +/- 0.53 g); format: functional
HCT-116 [12] = assay: Antitumor activity against human HCT116 cells xenografted in mouse assessed as reduction in tumor growth at 50 mg/kg, iv for 5 consecutive days per week and measured every 3 to 4 days up to 14 days; format: functional, organism-based
[13] = Prodrug release in tumor of mouse xenografted with human Capan1 cells assessed as increase in 7-ethyl-10-hydroxycamptothecin level at 50 mg/kg, iv after 72 hrs by LC-MS/MS analysis; format: ADME, organism-based, Neoplasm; details: in vivo
[14] = Metabolic stability in human liver microsomes assessed as compound remaining at 1 uM preincubated for 5 mins followed by NADPH addition and measured after 60 mins by LC-MS/MS analysis; format: ADME, Microsome; details: read-out: Stability
[15] = Apparent volume of distribution at steady state in BALB/c mouse at 50 mg/kg, iv after 5 to 24 hrs by LC-MS/MS analysis; format: ADME, organism-based; details: in vivo, read-out: Vdss(app)
HCT-116 [16] = assay: Downregulation of TOP1 expression in human HCT116 cells after 24 hrs by Western blot analysis; format: functional, cell-based
[17] = Half life in human plasma at 25 uM by HPLC analysis; format: ADME, cell-free
Heat shock protein HSP90 [18] = target: T1, Heat shock protein HSP90 (Homo sapiens, UniProt P07900+P08238); assay: Inhibition of HSP90 in human HCT116 cells assessed as upregulation of HSP70 expression at 0.008 to 1 uM after 24 hrs by Western blot analysis; format: cell-based
[19] = Half life in mouse plasma at 25 uM by HPLC analysis; format: ADME, cell-free
[20] = Drug uptake in human A549 cells assessed as blue fluorescence at 5 uM after 12 hrs by confocal laser scanning microscopic analysis; format: ADME, cell-based; details: a549, 12 h
[21] = Intrinsic clearance in human liver microsomes at 1 uM preincubated for 5 mins followed by NADPH addition and measured up to 360 mins by LC-MS/MS analysis; format: ADME, Microsome; details: 6 h
[22] = target: Heat shock protein HSP 90-alpha (Homo sapiens, UniProt P07900); assay: biochemical
Description: Inhibition of recombinant human full length HSP90 alpha expressed in Escherichia coli cells after 1 hr by fluorescence polarization assay

[23] = Half life in BALB/c mouse at 50 mg/kg, iv after 5 to 24 hrs by LC-MS/MS analysis; format: ADME, organism-based; details: in vivo
A549 [24] = assay: Ratio of prodrug release in human A549 cells assessed as increase in 7-ethyl-10-hydroxycamptothecin level at 5 uM after 12 hrs by LC-MS/MS analysis to prodrug release in human A549 cells assessed as increase in 7-ethyl-10-hydroxycamptothecin level at 5 uM after 1 hr by LC-MS/MS analysis; format: ADME, cell-based; details: a549, 5 µM
Heat shock protein HSP90 [25] = target: T1, Heat shock protein HSP90; assay: Drug uptake in human A549 cells assessed as eHSP90-mediated drug internalization by measuring blue fluorescence in PBS solution at 5 uM after 1 to 12 hrs by confocal laser scanning microscopic analysis; format: ADME, cell-based; details: a549, 5 µM, TDE = time-dependent effect
[26] = Half life in human liver microsomes at 1 uM preincubated for 5 mins followed by NADPH addition and measured up to 360 mins by LC-MS/MS analysis; format: ADME, Microsome
[27] = Toxicity in kidney of mouse xenografted with human Capan1 cells assessed as pathological changes at 50 mg/kg, iv for every 2 days measured at 2 hrs post last dose by H and E staining based analysis; format: organism-based; details: in vivo
[28] = Drug uptake in tumor of mouse xenografted with human Capan1 cells assessed as retention time of the compound at 50 mg/kg, iv by LC-MS/MS analysis; format: ADME, organism-based, Neoplasm; details: in vivo
A549 [29] = assay: Induction of cell cycle arrest in human A549 cells assessed as accumulation at G2/M phase after 24 hrs by RNase A/PI-staining based flow cytometric analysis; format: functional
[30] = Drug uptake in human A549 cells assessed as maximum emission peaks at 430 nm at 5 uM by fluorescence emission spectral analysis; format: ADME, cell-based; details: a549, 5 µM
[31] = Half life of compound in PBS buffer at pH 7.4 at 50 uM by HPLC analysis; format: physicochemical
MIA PaCa-2 = assay: Antiproliferative activity against human MIAPaCa2 cells assessed as reduction in cell viability after 72 hrs by SRB assay; format: functional, cell-based; details: MIA PaCa-2, 72 h
A549 [32] = assay: Antiproliferative activity against human A549 cells assessed as reduction in cell viability after 72 hrs by SRB assay; format: functional, cell-based; details: A549, 72 h
[33] = Toxicity in mouse xenografted with human HCT116 cells assessed as body weight loss at 50 mg/kg, iv for 5 consecutive days per week and measured every 3 to 4 days up to 14 days relative to control; format: organism-based; details: in vivo
[34] = Drug uptake in human A549 cells assessed as endocytosis-mediated total cellular drug internalization at 5 uM after 12 hrs by LC-MS/MS analysis relative to SN38; format: ADME, cell-based; details: a549, 12 h
CAPAN-1 [35] = assay: Induction of cell cycle arrest in human Capan1 cells assessed as accumulation at G2/M phase after 24 hrs by RNase A/PI-staining based flow cytometric analysis; format: functional
[36] = Drug uptake in human A549 cells assessed as endocytosis-mediated total cellular drug internalization at 5 uM after 12 hrs by LC-MS/MS analysis relative to irinotecan; format: ADME, cell-based; details: a549, 12 h
Heat shock protein HSP90 [37] = target: T1, Heat shock protein HSP90; assay: Inhibition of HSP90 in human A549 cells assessed as downregulation of AKT protein expression after 24 hrs by Western blot analysis; format: cell-based

Row | SMILES | TOP1 downregulation (A549 [1]) | half-life at 50 µM [2] | T/C (HCT-116 [3]) | AUC(0-inf) [4] | clearance [5] | Drug uptake [6] | Activity (HCT-116 [7]) | Drug uptake [8] | IC50 (L02) | IC50 (CAPAN-1 [9]) | IC50 (HCT-116 [10]) | Activity (HCT-116 [11]) | Activity (HCT-116 [12]) | remaining at 1 h, 1 µM [14] | Vd [15] | inhibition (HCT-116 [16]) | half-life at 25 µM [17] | half-life at 25 µM [19] | Drug uptake [20] | CLH [21] | other results
1 | CCc1c2c(nc3ccc(O)cc13)-c1cc3c(c(=O)n1C2)COC(=O)[C@@]3(CC)OC(=O)CNC(=O)c1noc(-c2cc(C(C)C)c(O)cc2O)c1-c1ccc(CN2CCOCC2)cc1 | Dose-dependent effect | > 24 h | 16.7% | 148 µg·h/mL | 5.81 mL/min/kg | Active | Dose-dependent effect | Active | 6870 nM | 36 nM | 22 nM | 0.32 g | Active | 80% | 0.101 L/kg | Dose-dependent effect | 13 h | 10.5 h | Active | 5.7 mL/min/kg | Drug metabolism [13]: Metabolite_Detected; inhibition (Heat shock protein HSP90 [18]): inactive; IC50 [22]: 72 nM; half-life [23]: 1.31 h; Ratio (A549 [24]): 4.3; Drug uptake (Heat shock protein HSP90 [25]): Tde; half-life at 1 µM [26]: 2.1 h; Activity [27]: Non-Toxic; Retention_time [28]: 72 h; Activity (A549 [29]): Dose-dependent effect; Drug uptake [30]: Active; half-life at 50 µM [31]: 10 h; IC50 (MIA PaCa-2): 46 nM; IC50 (A549 [32]): 56 nM; Activity [33]: < 20%; fold change (FC) [34]: 1.6 to 1.9; Activity (CAPAN-1 [35]): Dose-dependent effect; fold change (FC) [36]: 2.8 to 3.8
2 | CCc1c2c(nc3ccc(OC(=O)N4CCC(NC(=O)c5noc(-c6cc(C(C)C)c(O)cc6O)c5-c5ccc(CN6CCOCC6)cc5)CC4)cc13)-c1cc3c(c(=O)n1C2)COC(=O)[C@]3(O)CC | Dose-dependent effect | > 24 h | 33.8% | 172 µg·h/mL | 6.91 mL/min/kg | Active | Dose-dependent effect | Active | 7360 nM | 6800 nM | 614 nM | 0.47 g | Active | 87% | 0.103 L/kg | Dose-dependent effect | > 24 h | > 24 h | Active | 4.9 mL/min/kg | inhibition (Heat shock protein HSP90 [37]): Dose-dependent effect; IC50 [22]: 164 nM; half-life [23]: 1.72 h; Ratio (A549 [24]): 3.7; Drug uptake (Heat shock protein HSP90 [25]): Tde; half-life at 1 µM [26]: 2.6 h; Activity (A549 [29]): Dose-dependent effect; Drug uptake [30]: Active; half-life at 50 µM [31]: > 24 h; IC50 (MIA PaCa-2): 644 nM; IC50 (A549 [32]): 1110 nM; Activity [33]: < 20%; fold change (FC) [34]: 1.6 to 1.9; Activity (CAPAN-1 [35]): Dose-dependent effect; fold change (FC) [36]: 2.8 to 3.8

From ChEMBL document CHEMBL4354883, “Design, Synthesis, and Biological Evaluation of HSP90 Inhibitor-SN38 Conjugates for Targeted Drug Accumulation” (J Med Chem, 2020)
